This experiment deals with Heat shock 70 kDa protein 1A (Homo sapiens, UniProt V9GZ37). The experiment can be described thus: Hsp70 inhibitors, biochemical, TR-FRET (AID 786).

The values that follow come from BindingDB's records for doi:10.7270/Q2RF5SF5 (Burnham Center For Chemical Genomics, 2008).

Heat shock 70 kDa protein 1A, sequence (V9GZ37 whole entry): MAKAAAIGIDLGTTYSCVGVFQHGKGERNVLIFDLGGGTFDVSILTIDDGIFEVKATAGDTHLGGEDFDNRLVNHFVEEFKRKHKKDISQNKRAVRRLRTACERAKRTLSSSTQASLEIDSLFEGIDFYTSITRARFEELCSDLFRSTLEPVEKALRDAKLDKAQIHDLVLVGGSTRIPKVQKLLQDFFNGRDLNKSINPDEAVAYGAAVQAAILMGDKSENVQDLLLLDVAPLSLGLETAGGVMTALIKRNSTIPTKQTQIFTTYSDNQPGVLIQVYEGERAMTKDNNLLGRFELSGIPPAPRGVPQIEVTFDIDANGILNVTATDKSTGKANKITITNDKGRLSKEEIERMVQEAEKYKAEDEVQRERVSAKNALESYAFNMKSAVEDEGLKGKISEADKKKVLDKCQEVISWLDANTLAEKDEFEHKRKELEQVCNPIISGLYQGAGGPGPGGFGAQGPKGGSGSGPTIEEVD

Compound `CC(=O)N1CCC2(CC1)c1c(n[nH]c1C)OC(=N)C2C#N` (configuration not stated) [6-azanyl-1'-ethanoyl-3-methyl-spiro[2H-pyrano[2,3-c]pyrazole-4,4'-piperidine]-5-carbonitrile] had an IC50 of more than 100 µM. `C=c1[nH]n(-c2cccc(C(=O)O)c2)c(=O)c1=CC=Cc1ccco1` [SMR000113614] displayed an IC50 of 17.4 µM.
